Data from ChEMBL document CHEMBL1201862, “PubChem BioAssay data set” (2004).
Active and inactive are the calls of the source.

Key:
Cytochrome P450 2D6 = Cytochrome P450 2D6 (Homo sapiens, UniProt P10635);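 further: CYP2D6 member of a cytochrome P450 panel assay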
Cytochrome P450 2C9 = Cytochrome P450 2C9 (Homo sapiens, UniProt P11712)
Cytochrome P450 1A2 = molecular target: T1, Cytochrome P450 1A2 (Homo sapiens, UniProt P05177);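 further: PubChem cytochrome P450 panel assay, CYP1A2 panel member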
T1 sequence (P05177 whole entry): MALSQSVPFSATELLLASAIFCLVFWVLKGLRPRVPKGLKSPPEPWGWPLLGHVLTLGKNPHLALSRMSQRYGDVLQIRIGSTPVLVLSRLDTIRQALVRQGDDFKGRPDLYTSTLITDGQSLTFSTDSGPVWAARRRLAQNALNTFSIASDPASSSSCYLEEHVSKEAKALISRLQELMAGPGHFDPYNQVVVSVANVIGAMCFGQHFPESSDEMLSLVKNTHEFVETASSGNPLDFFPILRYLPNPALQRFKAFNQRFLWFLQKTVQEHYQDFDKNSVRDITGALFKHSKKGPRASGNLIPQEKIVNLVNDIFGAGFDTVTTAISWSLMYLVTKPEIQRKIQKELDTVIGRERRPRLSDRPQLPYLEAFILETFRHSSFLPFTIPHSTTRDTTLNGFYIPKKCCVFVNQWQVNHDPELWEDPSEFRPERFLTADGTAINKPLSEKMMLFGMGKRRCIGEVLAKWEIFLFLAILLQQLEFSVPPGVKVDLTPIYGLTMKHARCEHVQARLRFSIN

[1] = molecular target: T2, Heat shock factor protein 1 (Mus musculus, UniProt P38532); experiment: HSF1 potentiators in luciferase reporter cells, confirmation, cell-based, NIH3T3, luminescence, dose retest (AID 435004); format: functional;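 further: stress induced by proteasome inhibitor MG132 added 30 min after compound; luciferase reporter driven by HSF1 response element in NIH3T3 cells; actives raise luminescence as potentiators of the MG132 stress response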
T2 sequence (P38532 whole entry): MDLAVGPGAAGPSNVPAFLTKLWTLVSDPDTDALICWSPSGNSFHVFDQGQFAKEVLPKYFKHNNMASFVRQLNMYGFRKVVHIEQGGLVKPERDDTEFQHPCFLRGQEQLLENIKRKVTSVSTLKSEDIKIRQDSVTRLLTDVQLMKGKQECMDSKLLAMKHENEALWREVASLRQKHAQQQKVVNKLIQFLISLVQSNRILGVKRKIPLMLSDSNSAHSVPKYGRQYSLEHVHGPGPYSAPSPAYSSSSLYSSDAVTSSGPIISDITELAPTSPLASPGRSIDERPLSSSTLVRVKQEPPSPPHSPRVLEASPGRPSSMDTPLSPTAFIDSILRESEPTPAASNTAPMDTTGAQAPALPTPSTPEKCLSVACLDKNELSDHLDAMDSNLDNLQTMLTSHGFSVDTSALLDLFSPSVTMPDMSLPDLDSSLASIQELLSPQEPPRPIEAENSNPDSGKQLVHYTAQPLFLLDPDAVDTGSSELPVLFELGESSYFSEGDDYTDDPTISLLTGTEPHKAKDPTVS

Chain of Cytochrome P450 2C9 (P11712 whole entry): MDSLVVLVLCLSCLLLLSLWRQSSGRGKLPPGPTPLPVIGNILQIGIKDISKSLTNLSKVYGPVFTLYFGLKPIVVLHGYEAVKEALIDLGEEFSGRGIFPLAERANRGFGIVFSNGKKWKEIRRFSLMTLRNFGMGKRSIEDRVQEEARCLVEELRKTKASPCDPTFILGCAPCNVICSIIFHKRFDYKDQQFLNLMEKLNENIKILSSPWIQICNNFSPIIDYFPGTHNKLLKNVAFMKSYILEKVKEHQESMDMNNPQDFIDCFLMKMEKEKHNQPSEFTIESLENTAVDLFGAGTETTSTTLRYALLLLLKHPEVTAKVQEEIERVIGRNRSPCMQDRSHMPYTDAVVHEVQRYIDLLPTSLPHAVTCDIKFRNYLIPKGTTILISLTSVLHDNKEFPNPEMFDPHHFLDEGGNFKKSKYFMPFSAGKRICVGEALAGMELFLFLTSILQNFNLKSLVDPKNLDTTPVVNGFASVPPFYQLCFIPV
Chain of Cytochrome P450 2D6 (P10635 whole entry): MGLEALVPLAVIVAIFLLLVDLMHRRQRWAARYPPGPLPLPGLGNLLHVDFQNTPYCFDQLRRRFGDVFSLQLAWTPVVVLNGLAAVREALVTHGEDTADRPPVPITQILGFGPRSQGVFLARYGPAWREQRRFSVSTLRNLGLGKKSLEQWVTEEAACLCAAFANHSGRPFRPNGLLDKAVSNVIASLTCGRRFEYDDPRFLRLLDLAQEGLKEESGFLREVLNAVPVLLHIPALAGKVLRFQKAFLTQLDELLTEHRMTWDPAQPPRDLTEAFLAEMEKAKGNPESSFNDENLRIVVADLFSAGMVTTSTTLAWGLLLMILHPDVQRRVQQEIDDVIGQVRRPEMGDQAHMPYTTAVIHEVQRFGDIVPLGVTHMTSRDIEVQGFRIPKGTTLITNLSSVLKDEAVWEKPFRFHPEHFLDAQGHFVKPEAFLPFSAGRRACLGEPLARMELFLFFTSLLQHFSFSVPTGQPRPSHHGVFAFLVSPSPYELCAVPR

AC50 (Cytochrome P450 2D6)	EC50 [1]	Structure (SMILES)	further results
2 µM (inconclusive)		COc1ccc(C(=O)NCCCN2CCOCC2)cc1OC	AC50 (Cytochrome P450 2C9): 14.1 µM (inconclusive)
		COc1ccccc1CN1CCCC2(CCN(C(=O)c3ccncc3)CC2)C1	AC50 (Cytochrome P450 1A2): 20 µM (inconclusive); AC50 (Cytochrome P450 2C9): 20 µM (inconclusive)
		CC12COC3(C(=O)Nc4nccs4)CC1CCC32C (stereo unspecified)	AC50 (Cytochrome P450 1A2): 12.6 µM (inconclusive); AC50 (Cytochrome P450 2C9): 0.01 µM (inconclusive)
12.6 µM (inconclusive)		CC(C)CN1CCC2(CC1)CCN(C(=O)c1cccn1C)CC2	
	> 260 µM (inactive)	Cc1ccc(C)c(S(=O)(=O)c2c(N)n(/N=C/c3ccco3)c3nc4ccccc4nc23)c1	
	> 260 µM (inactive)	CC(=O)NCCn1ccc2ccccc21	
3.98 µM (inconclusive)		COc1ccc(OCCn2c(C)c(/C=N/n3cnnc3)c3ccccc32)cc1	
		Cc1ccc(C(=O)NCCCN2CCOCC2)cc1N1CCCC1=O	AC50 (Cytochrome P450 2C9): 1.26 µM (inconclusive)
	> 260 µM (inactive)	CCCc1ccc(NC(=O)C2CCCN(c3cnccn3)C2)cc1 (stereo unspecified)	
	51.8 µM (active)	COc1cccc(-c2c(C(=O)N/N=C(\C)c3ccc(Cl)s3)nnn2-c2nonc2N)c1	
	> 260 µM (inactive)	CSc1sc(C(=O)OC(C)C)c2c1C(=O)CC(C)(C)C2	
	6.25 µM (active)	Cc1ccc(NC(=S)N=Nc2c(O)n(C)c3ccc(S(=O)(=O)N4CCOCC4)cc23)cc1	
	> 260 µM (inactive)	Cc1ccc(C)c(NC(=O)CS(=O)(=O)c2cn(C)c3ccccc23)c1	
		C/C(=N/NC(=O)c1cccs1)c1ccc(NC(=O)COc2ccc(Cl)cc2Cl)cc1	AC50 (Cytochrome P450 1A2): 12.6 µM (inconclusive); AC50 (Cytochrome P450 2C9): 4.47 µM (inconclusive)
	> 260 µM (inactive)	Cc1cccc(CN2CCC(C(=O)Nc3cccc(-c4cscn4)c3)CC2)n1	
0.631 µM (inconclusive)		CN(C)c1ncc2nc(-c3ccc(Cl)cc3)c(=O)n(-c3ccccc3)c2n1	AC50 (Cytochrome P450 1A2): 5.01 µM (inconclusive)
10 µM (inconclusive)		COC(=O)[C@@]1(Cc2ccccc2)[C@H]2c3cc(C(=O)N4CCCC4)n(Cc4cc(F)cc5c4OCOC5)c3C[C@H]2CN1C(=O)c1ccccc1	
	13.5 µM (active)	O=c1ccc2ccc(Oc3ccc([N+](=O)[O-])cc3[N+](=O)[O-])cc2o1	
	> 260 µM (inactive)	CC(=O)N1c2ccc(C)cc2C(c2ccccc2)CC1C (stereo unspecified)	
		CC(=O)NN1C(=O)/C(=C\c2ccc(C)cc2)SC1=S	AC50 (Cytochrome P450 2C9): 28.2 µM (inconclusive)
20 µM (inconclusive)		Cc1ccc(CNC(=O)Cn2c(=O)oc3ccccc32)o1	
	> 260 µM (inactive)	COc1cccc(CN2CC(C(=O)NCc3ccc(C)o3)CCC2=O)c1 (stereo unspecified)	
	> 260 µM (inactive)	CCOc1ccc(C)cc1S(=O)(=O)NC1CCCCC1	
15.8 µM (inconclusive)		O=C(CN(Cc1ccccc1)S(=O)(=O)c1ccc2c(c1)OCCO2)N/N=C/c1ccc(F)cc1	AC50 (Cytochrome P450 1A2): 11.2 µM (inconclusive)
0.158 µM (inconclusive)		CCNc1ncc2nc(-c3cc(F)cc(F)c3)c(=O)n(-c3ccc(OC)cc3)c2n1	
	> 260 µM (inactive)	N#Cc1ccc(Cl)cc1NC(=O)CNCc1cccs1	
	> 260 µM (inactive)	CC(C)(C)c1ccc(OCC(=O)NN2Cc3ccccc3C2=N)cc1	
12.6 µM (inconclusive)		COc1ccccc1CNc1ncnc2ccc(-c3ccccc3OC)cc12	
		CS(=O)(=O)Nc1cccc(-c2nc(NCc3cccnc3)c3ccccc3n2)c1	AC50 (Cytochrome P450 2C9): 1 µM (inconclusive)

Structure (SMILES)	AC50 (Cytochrome P450 2D6)	EC50 [1]	further results
O=C1c2ccccc2C(=O)c2c1ccc(C(=O)O)c2-c1ccc2ccccc2c1	7.94 µM (inconclusive)		AC50 (Cytochrome P450 1A2): 1.26 µM (inconclusive)
CN(C(=O)Cc1ccc(Cl)c(Cl)c1)[C@H](CN1CCCC1)c1ccccc1 [ICI-199,441]	0.0126 µM (active)		AC50 (Cytochrome P450 1A2): 31.6 µM (inconclusive)
Nc1ccccc1SCc1csc(-c2ccc(Cl)cc2)n1	3.16 µM (inconclusive)		AC50 (Cytochrome P450 2C9): 5.01 µM (inconclusive)
